Data set [1] in a line: clinical. Conditions: human, in vivo, iv, CL.
A short description of data set [2]: clinical. Particulars: human, in vivo, iv, Vdss.
Data set [3] is described as follows: clinical. Conditions: human, in vivo, iv.
A short description of data set [4]: clinical. Particulars: human, in vivo, iv, t1/2.

In the case of `COc1ccc2[nH]c([S+]([O-])Cc3ncc(C)c(OC)c3C)nc2c1` (stereo unspecified) [OMEPRAZOLE], the clearance in “clinical [1]” came to 8.4 mL/min/kg. The molecule further gave a Vd in the data set “clinical [2]” of 0.24 L/kg. This molecule also showed an MRT in the data set “clinical [3]” of 0.48 h. Moreover, the half-life in the data set “clinical [4]” was 0.58 h.
On the same counts, the results for `CS(=O)(=O)OCCCCOS(C)(=O)=O` [BUSULFAN] are 2.4 mL/min/kg, 0.55 L/kg, 3.8 h and 3.4 h.
The like results for `CN1CCN(CCCN2c3ccccc3Sc3ccc(Cl)cc32)CC1` [PROCHLORPERAZINE] were, in that order, 16 mL/min/kg, 22 L/kg, 23 h and 9 h.
The like results for `C[C@H](/C=C/[C@H](C)C(C)(C)O)[C@H]1CC[C@H]2/C(=C/C=C3C[C@@H](O)C[C@H](O)C3)CCC[C@]12C` [PARICALCITOL] were, in that order, 0.89 mL/min/kg, 0.41 L/kg, 7.7 h and 5.3 h.
As to `CCCNC(=O)NS(=O)(=O)c1ccc(Cl)cc1` [CHLORPROPAMIDE], the clearance in the data set “clinical [1]” worked out at 0.045 mL/min/kg. This molecule returned a Vd in the data set “clinical [2]” of 0.19 L/kg. In the data set “clinical [3]”, this molecule showed an MRT of 70 h. The molecule further gave a half-life in “clinical [4]” of 46 h.
The like results for `COc1cc2c(cc1OC)CN(c1cc(N)c3cc(OC)c(OC)cc3n1)CC2` [ABANOQUIL] were, in that order, 14 mL/min/kg, 6.3 L/kg, 7.6 h and 5.9 h.
The like results for `Cc1[nH]cnc1CN1CCc2c(c3ccccc3n2C)C1=O` [ALOSETRON] were, in that order, 8.7 mL/min/kg, 1.1 L/kg, 2.1 h and 1.6 h.
`CC1=C(CO)C2=C(C)C3(CC3)[C@@](C)(O)C(=O)C2=C1` [IROFULVEN] yielded a clearance in “clinical [1]” of 140 mL/min/kg. For the same molecule, the Vd in “clinical [2]” is 3.1 L/kg. Besides, the MRT in the data set “clinical [3]” was determined as 0.4 h. For the same molecule, the half-life in the data set “clinical [4]” was 0.3 h.
The molecule `NS(=O)(=O)c1cc2c(cc1C(F)(F)F)NCNS2(=O)=O` [HYDROFLUMETHIAZIDE] yielded a clearance in the data set “clinical [1]” of 9.7 mL/min/kg. Moreover, in “clinical [2]”, the volume of distribution (Vd) came out at 2.2 L/kg. This molecule showed a mean residence time (MRT) in the data set “clinical [3]” of 3.8 h. The molecule also had a half-life in the data set “clinical [4]” of 5.2 h.
In turn, `CC1(C)S[C@@H]2[C@H](NC(=O)[C@H](N)c3ccccc3)C(=O)N2[C@H]1C(=O)O` [AMPICILLIN] showed a clearance in the data set “clinical [1]” of 2.8 mL/min/kg. In the data set “clinical [2]”, the Vd was 0.22 L/kg. The same molecule had an MRT in “clinical [3]” of 1.3 h. In “clinical [4]”, the half-life is 1.4 h.
On to `Cc1ccsc1C(=CCCN1CCC[C@@H](C(=O)O)C1)c1sccc1C` [TIAGABINE], for which, in “clinical [1]”, the clearance was 1.6 mL/min/kg. Also, the Vd in “clinical [2]” came out at 1.1 L/kg. Moreover, in “clinical [3]”, the MRT was determined as 12 h. This molecule also had a half-life in “clinical [4]” of 10 h.
Turning to `O=c1n(CCCN2CCN(c3cccc(Cl)c3)CC2)nc2ccccn12` [TRAZODONE], the clearance in the data set “clinical [1]” worked out at 1.4 mL/min/kg. The molecule also displayed a distribution volume (Vd) in “clinical [2]” of 0.52 L/kg. In the data set “clinical [3]”, the mean residence time MRT turned out to be 6.2 h. Also, in “clinical [4]”, the half-life was 7.3 h.
On the same counts, the results for `CCCCCN(CCCOC)C(=O)C(CCC(=O)O)NC(=O)c1ccc(Cl)c(Cl)c1` (stereo unspecified) [LOXIGLUMIDE] are 1 mL/min/kg, 0.24 L/kg, 4 h and 5.2 h.
In turn, `CNC(=O)c1c(I)c(NC(C)=O)c(I)c(C(=O)O)c1I` [IOTHALAMIC ACID] displayed a clearance in the data set “clinical [1]” of 2.4 mL/min/kg. In the data set “clinical [2]”, this molecule yielded a Vd of 0.17 L/kg. The same molecule showed a mean residence time (MRT) in the data set “clinical [3]” of 1.2 h. For the same molecule, the half-life in “clinical [4]” was 1.3 h.
On to `CCO[C@@H](Cc1ccc(OCCc2ccc(OS(C)(=O)=O)cc2)cc1)C(=O)O` [TESAGLITAZAR], for which, in the data set “clinical [1]”, the clearance was determined as 0.039 mL/min/kg. Further, in “clinical [2]”, the Vd was found to be 0.13 L/kg. The molecule further showed an MRT in the data set “clinical [3]” of 56 h. The molecule also showed a half-life in “clinical [4]” of 45 h.
The like results for `CC1=C(C(=O)O)N2C(=O)[C@@H](NC(=O)[C@H](N)C3=CCC=CC3)[C@H]2SC1` [CEPHRADINE] were, in that order, 3.3 mL/min/kg, 0.21 L/kg, 1.1 h and 0.85 h.
Turning to `CC1=C(C(=O)O)N2C(=O)[C@@H](NC(=O)[C@H](N)c3ccc(O)cc3)[C@H]2SC1` [CEFADROXIL], the clearance in “clinical [1]” came out at 2.5 mL/min/kg. In “clinical [2]”, this molecule yielded a Vd of 0.23 L/kg. The molecule also came in with an MRT in “clinical [3]” of 1.5 h. In “clinical [4]”, this molecule showed a half-life of 1.1 h.
`CN(C)C(=O)Oc1ccc[n+](C)c1` [PYRIDOSTIGMINE]: the clearance in “clinical [1]” was 9.6 mL/min/kg. Further, the Vd in the data set “clinical [2]” is 1.1 L/kg. In “clinical [3]”, this molecule displayed an MRT of 1.8 h. Moreover, the half-life in “clinical [4]” is 1.5 h.
Molecule `CC=CC1=C(C(=O)O)N2C(=O)[C@@H](NC(=O)[C@H](N)c3ccc(O)cc3)[C@H]2SC1` [CEFPROZIL] yielded a clearance in “clinical [1]” of 2.9 mL/min/kg. In “clinical [2]”, this molecule registered a Vd of 0.21 L/kg. The molecule further showed a mean residence time MRT in the data set “clinical [3]” of 1.2 h. This molecule also had a half-life in “clinical [4]” of 1.2 h.
In the case of `CCOc1ccc(/C=C2\NCCc3cc(OCC)c(OCC)cc32)cc1OCC` [DROTAVERINE], the clearance in “clinical [1]” is 3.5 mL/min/kg. The molecule further had a Vd in the data set “clinical [2]” of 1.9 L/kg. Also, the mean residence time (MRT) in “clinical [3]” is 9 h. Also, the half-life in “clinical [4]” was 9.3 h.
The molecule `CC[C@H]1OC(=O)[C@H](C)[C@@H](O[C@H]2C[C@@](C)(OC)[C@@H](O)[C@H](C)O2)[C@H](C)[C@@H](O[C@@H]2O[C@H](C)C[C@H](N(C)C)[C@H]2O)[C@](C)(OC)C[C@@H](C)C(=O)[C@H](C)[C@@H](O)[C@]1(C)O` [CLARITHROMYCIN] gave a clearance in “clinical [1]” of 7.3 mL/min/kg. This molecule had a volume of distribution (Vd) in “clinical [2]” of 1.5 L/kg. In the data set “clinical [3]”, this molecule yielded a mean residence time MRT of 3.4 h. Moreover, the half-life in “clinical [4]” is 2.8 h.
As to `CC(C)(C)[C@]1(O)CC2OC(=O)CC23C(=O)OC2OC(=O)[C@H](O)C231` (stereo partly specified) [BILOBALIDE], the clearance in “clinical [1]” was found to be 10 mL/min/kg. This molecule showed a Vd in the data set “clinical [2]” of 2.5 L/kg. This molecule also displayed an MRT in the data set “clinical [3]” of 4 h. The molecule also had a half-life in “clinical [4]” of 3.2 h.
The like results for `C[C@@H]1CN(c2c(F)c(N)c3c(=O)c(C(=O)O)cn(C4CC4)c3c2F)C[C@H](C)N1` [SPARFLOXACIN] were, in that order, 2.7 mL/min/kg, 3.9 L/kg, 24 h and 20 h.
The like results for `Cn1cc(NC(=O)Nc2cc(C(=O)Nc3cc(C(=O)Nc4ccc5cc(S(=O)(=O)O)cc(S(=O)(=O)O)c5c4)n(C)c3)n(C)c2)cc1C(=O)Nc1cc(C(=O)Nc2ccc3cc(S(=O)(=O)O)cc(S(=O)(=O)O)c3c2)n(C)c1` were, in that order, 0.0047 mL/min/kg, 0.27 L/kg, 960 h and 730 h.
The like results for `CC(C)NCC(O)COc1ccc(CCOCC2CC2)cc1` (stereo unspecified) [BETAXOLOL] were, in that order, 3.4 mL/min/kg, 4.8 L/kg, 24 h and 17 h.
In turn, `CC[C@H](C)C(=O)O[C@H]1C[C@@H](C)C=C2C=C[C@H](C)[C@H](CC[C@@H]3C[C@@H](O)CC(=O)O3)[C@H]21` [LOVASTATIN] gave a clearance in the data set “clinical [1]” of 7.2 mL/min/kg. This molecule also yielded a Vd in the data set “clinical [2]” of 0.87 L/kg. Moreover, the mean residence time (MRT) in the data set “clinical [3]” stood at 1.3 h. Also, in the data set “clinical [4]”, the half-life is 1.4 h.
On the same counts, the results for `CN1C2CCCC1CC(NC(=O)c1nn(C)c3ccccc13)C2` (stereo unspecified) [GRANISETRON] are 9.1 mL/min/kg, 3.7 L/kg, 6.7 h and 5.2 h.
The like results for `O=C1CN=C(c2ccccc2Cl)c2cc([N+](=O)[O-])ccc2N1` [CLONAZEPAM] were, in that order, 0.88 mL/min/kg, 2.9 L/kg, 55 h and 38 h.
In the data set “clinical [1]”, `COC(=O)Nc1nc2ccc(C(=O)c3ccccc3)cc2[nH]1` [MEBENDAZOLE] returned a clearance of 15 mL/min/kg. This molecule showed a Vd in the data set “clinical [2]” of 1.2 L/kg. This molecule came in with an MRT in the data set “clinical [3]” of 1.3 h. The same molecule gave a half-life in “clinical [4]” of 1.1 h.
In “clinical [1]”, `COc1ccc(C(=O)Nc2ccccc2CCC2CCCCN2C)cc1` (stereo unspecified) [ENCAINIDE] yielded a clearance of 13 mL/min/kg. The molecule further gave a volume of distribution (Vd) in the data set “clinical [2]” of 2.2 L/kg. Further, the mean residence time (MRT) in the data set “clinical [3]” is 2.8 h. The molecule further showed a half-life in the data set “clinical [4]” of 2.6 h.
`Cn1c(=O)c2c(ncn2CC(O)CO)n(C)c1=O` (stereo unspecified) [DYPHYLLINE] came in with a clearance in the data set “clinical [1]” of 4.8 mL/min/kg. For the same molecule, the distribution volume (Vd) in “clinical [2]” is 0.42 L/kg. For the same molecule, in the data set “clinical [3]”, the MRT stood at 1.5 h. The half-life in the data set “clinical [4]” was 1.7 h.
The like results for `CC(=N)N1CC[C@H](SC2=C(C(=O)O)N3C(=O)[C@H]([C@@H](C)O)[C@H]3C2)C1` were, in that order, 2.6 mL/min/kg, 0.19 L/kg, 1.2 h and 0.96 h.
The molecule `CC(C)(C)NC(=O)[C@H]1CC[C@H]2[C@@H]3CC=C4C=C(C(=O)O)CC[C@]4(C)[C@H]3CC[C@]12C` [EPRISTERIDE] showed a clearance in “clinical [1]” of 0.33 mL/min/kg. In addition, the volume of distribution (Vd) in the data set “clinical [2]” was 0.54 L/kg. Moreover, the mean residence time MRT in “clinical [3]” came out at 27 h. Also, in the data set “clinical [4]”, the half-life is 27 h.
With `CCCCc1nc(Cl)c(CO)n1Cc1ccc(-c2ccccc2-c2nn[nH]n2)cc1` [LOSARTAN], the clearance in the data set “clinical [1]” came out at 8.2 mL/min/kg. This molecule registered a Vd in the data set “clinical [2]” of 0.37 L/kg. In the data set “clinical [3]”, this molecule showed a mean residence time MRT of 0.75 h. In “clinical [4]”, this molecule had a half-life of 1.8 h.
On the same counts, the results for `CCC(CC)O[C@@H]1C=C(C(=O)O)C[C@H](N)[C@H]1NC(C)=O` [OSELTAMIVIR CARBOXYLATE] are 4.8 mL/min/kg, 0.37 L/kg, 1.3 h and 1.8 h.
The like results for `CN[C@@H]1CCc2[nH]c3ccc(C(N)=O)cc3c2C1` [FROVATRIPTAN] were, in that order, 2.5 mL/min/kg, 3.6 L/kg, 22 h and 24 h.
Take `CC(C)(C)NC[C@H](O)COc1nsnc1N1CCOCC1` [TIMOLOL]: in “clinical [1]”, the clearance was 8.5 mL/min/kg. This molecule gave a Vd in “clinical [2]” of 1.5 L/kg. In the data set “clinical [3]”, the MRT was determined as 3 h. The half-life in “clinical [4]” is 2.2 h.
The like results for `O=C1CN(/N=C/c2ccc(-c3ccc([N+](=O)[O-])cc3)o2)C(O)=N1` [DANTROLENE] were, in that order, 0.43 mL/min/kg, 0.37 L/kg, 14 h and 10 h.
On the same counts, the results for `CCCCCCCN(CC)CCCC(O)c1ccc(NS(C)(=O)=O)cc1` (stereo unspecified) [IBUTILIDE] are 26 mL/min/kg, 12 L/kg, 7.7 h and 7 h.

The record behind these values is ChEMBL document CHEMBL1614632, “Trend analysis of a database of intravenous pharmacokinetic parameters in humans for 670 drug compounds” (Drug Metab Dispos, 2008).
